12 molecules from patent US11685761B2, “Cyclic di-nucleotide compounds as sting agonists” (Merck Sharp & Dohme Corp., priority 2017, dated 2023) can be followed below.

The structures appear in SMILES notation.

The target in one assay is T1, full-length HAQ STING (Homo sapiens, UniProt Q86WV6, G230A/H232R/R293Q/R71H).
T1 construct: made in house; host or cells: Trichoplusia ni (Hi-Five) insect cells, baculovirus generated in Sf21; crude membranes
The assay is described as follows: 3H-cGAMP filtration binding assay (HAQ STING). Particulars: competition with tritiated cGAMP ligand; T. ni cell membranes overexpressing full-length HAQ STING. From the text: The ability of compounds to bind STING is quantified by the ability to compete with tritiated cGAMP ligand for human STING receptor membrane using a radioactive filter-binding assay. The binding assay employs STING receptor obtained from Hi-Five cell membranes overexpressing full-length HAQ STING prepared in-house and tritiated cGAMP ligand also purified in-house.
The ability of compounds to bind STING is quantified by their ability to compete with tritiated cGAMP ligand for human STING receptor membrane using a radioactive filter-binding assay. The binding assay employs STING receptor obtained from Trichoplusia ni cell membranes (T. ni; Expression Systems, cat #94-002F, www.expressionsystems.com) overexpressing full-length HAQ STING and tritiated cGAMP ligand.
The basic HAQ STING filtration assay protocol is as follows:
The compounds were serially titrated by the Hamilton STARPlus CORE in a 96-well plate (Greiner, #651201) using a 1:3 ten-point dose response format. […] 148 uL of prepared membrane was then manually added to each well of a 96-well deep-well polypropylene plate (Fisher Scientific, #12-566-121). Following membrane addition, 2 uL of either titrated test compound, DMSO control (Sigma #276855), or cold cGAMP control was added to the appropriate wells using a BIOMEK FX. Compound and membrane then preincubated for 60 min at RT to allow compound binding to equilibrate. Following equilibration, 8 nM of [^3H] c-GAMP ligand was prepared by diluting into assay buffer, and 50 uL of this working stock was then manually added to each well of the assay plate. Plates were then incubated at RT for 60 min, and the contents of each assay plate were then filtered through a 96-well GF/B filter plate (PerkinElmer, #6005250) using a TOMTEC MACH III Cell Harvester equipped with 20 mM HEPES buffer (Fisher Scientific, #BP299500). The filter plates were then dried at 55° C. for 30 min using a pressurized oven before 30 uL of ULTIMA GOLD F scintillate was added to each well. Tritium levels for each reaction well were then measured using a PerkinElmer TopCount plate reader.
(§1) After normalization to controls, the percent activity for each compound concentration was calculated by measuring the amount of remaining radioactivity. The plot of percent activity versus the log of compound concentration was fit with a 4-parameter dose response equation to calculate EC50 values.

Another assay concerns the target T2, full-length WT STING (Homo sapiens, UniProt Q86WV6, H232R).
T2 construct: made in house; host or cells: Trichoplusia ni insect cells, baculovirus generated in Sf21; crude membranes
The assay is described as follows: 3H-cGAMP filtration binding assay (WT STING). Particulars: competition with tritiated cGAMP ligand; T. ni cell membranes overexpressing full-length WT STING. On the procedure: The ability of compounds to bind STING is quantified by their ability to compete with tritiated cGAMP ligand for human STING receptor membrane using a radioactive filter-binding assay. The binding assay employs STING receptor obtained from Trichoplusia ni cell membranes (T. ni; Expression Systems, cat #94-002F, www.expressionsystems.com) overexpressing full-length WT STING and tritiated cGAMP ligand.
The basic WT STING filtration assay protocol is as follows:
16 nM of [^3H] c-GAMP ligand was prepared by diluting into assay buffer, and 50 uL of this working stock was manually added to each well of the assay plate. After ligand addition, 2 uL of either titrated test compound, DMSO control (Sigma #276855), or cold cGAMP control was added to the appropriate wells using a BIOMEK FX. The serially titrated compound was prepared on a Hamilton STARPlus CORE in a 96-well plate (Greiner, #651201) using a 1:3 ten-point dose response format. Following compound addition, a 2.2 ug/ml working concentration of STING membrane (SEQ. ID. No. 3) was prepared by diluting concentrated membrane into assay buffer (1×PBS; Invitrogen #SH30028.02) and douncing 7× using a manual tissue homogenizer (Wheaton, #357546). 148 uL of this prepared membrane was then manually added to each well of a 96-well deep-well polypropylene plate (Fisher Scientific, #12-566-121). Compound, ligand, and membrane then incubated for 60 min at RT before the contents of each assay plate were filtered through a 96-well GF/B filter plate (PerkinElmer, #6005250) using a TOMTEC MACH III Cell Harvester equipped with 20 mM HEPES buffer (Fisher Scientific, #BP299500). The filter plates were then dried at 55° C. for 30 min using a pressurized VWR oven before 30 uL of ULTIMA GOLD F scintillate was added to each well. Tritium levels for each reaction well were then measured using a PerkinElmer TopCount plate reader.
as §1

The test system of assay [1] is IFN-β secretion from THP1 cells. In words: IFN-β secretion in THP1 cell culture (5 h). Format: cell-based, human. Particulars: THP1 cells, 5 h incubation, compound at 30 μM, 30 uM cGAMP = 100%; for activation at 30 µM: Homo sapiens, THP-1, 5 h, read-out: % Effect at 30 μM relative to 2′3′-cGAMP. The method, then: The ability of compounds to stimulate the secretion of interferon-beta from THP1 cells was measured using a human IFN-β AlphaLISA kit (Perkin Elmer, Cat. No. AL265F). The basic protocol is as follows:
The cell viability and count was ascertained using a Beckman Coulter V-Cell XR cell counter. The cell suspension was centrifuged at 200×g for 5 min at RT. Cells were resuspended to a density of 0.8×10^6/mL in 37° C. assay medium. Subsequent liquid transfers were performed using either a Matrix electronic multichannel pipette or an Agilent Bravo Automated Liquid Handling Platform.
The assay was started by dispensing 40 μL of the previously prepared cell suspension into the wells of the plate containing compounds. After 5 h incubation at 37° C., 5% CO2 in a humidified atmosphere, the plate of cells and compounds was centrifuged at 200×g for 5 min at RT. […] To these supernatant-containing wells was added 10 μL of 5× Anti-Analyte Acceptor beads (50 μg/mL of AlphaLISA HiBlock Buffer) and incubated for 30 min at RT while shaking on an orbital plate shaker. To each well was added 10 μL of 5× Biotinylated Antibody Anti-analyte (5 nM in AlphaLISA HiBlock Buffer) and incubated on an orbital plate shaker for 60 min at RT or overnight at 4° C. To each well was added 25 μL of 2× SA-Donor beads (80 μg/mL in AlphaLISA HiBlock Buffer) and incubated for 30-45 min at RT in the dark while shaking on an orbital plate shaker. The plate was then read on a Perkin Elmer Envision (λex680 nm, λem=570 nm). The percent effect of the AlphaLISA signal at each compound concentration was calculated based on 30 uM cGAMP positive controls and 0.3% DMSO negative controls. The plot of percent effect versus the log of compound concentration was fit with a 4-parameter concentration response equation to calculate EC50 values.
Compounds of the disclosure were evaluated for IFN-β secretion in THP1 cell culture as described above.

T1 sequence (Q86WV6 with tags, fused parts or gaps R71H/G230A/H232R/R293Q): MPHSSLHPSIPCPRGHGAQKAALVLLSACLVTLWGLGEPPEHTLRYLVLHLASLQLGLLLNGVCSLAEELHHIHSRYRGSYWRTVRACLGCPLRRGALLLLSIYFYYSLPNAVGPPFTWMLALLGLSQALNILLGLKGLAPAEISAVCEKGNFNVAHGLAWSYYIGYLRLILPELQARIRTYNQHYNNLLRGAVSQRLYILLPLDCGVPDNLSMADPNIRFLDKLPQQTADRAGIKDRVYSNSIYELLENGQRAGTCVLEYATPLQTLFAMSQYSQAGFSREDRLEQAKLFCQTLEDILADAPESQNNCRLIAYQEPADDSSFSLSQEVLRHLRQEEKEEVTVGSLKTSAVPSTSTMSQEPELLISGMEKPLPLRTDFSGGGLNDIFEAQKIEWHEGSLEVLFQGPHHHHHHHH
T2 sequence (Q86WV6 with tags, fused parts or gaps H232R): as the sequence (Q86WV6 with tags, fused parts or gaps R71H/G230A/H232R/R293Q) above, with H71R, A230G, Q293R counted along it

As for `Nc1ncnc2c1ncn2[C@@H]1O[C@@H]2COP(=O)(S)O[C@H]3[C@H](F)[C@H](n4ccc5c(=O)[nH]cnc54)O[C@@H]3COP(=O)(S)O[C@@H]1C2` (single isomer, unassigned) [Example 46], the concentration giving a half-maximal response (EC50) (in general, the concentration at which the effect is half-maximal) at full-length HAQ STING stood at 16 nM; at full-length WT STING, 2400 nM. In addition, in assay [1], the “% Effect at 30 μM relative to 2′3′-cGAMP” value was determined as 166%.

For the molecule `Nc1ncnc2c1ncn2[C@@H]1O[C@@H]2CO[P@@](=O)(S)O[C@@H]3C[C@@H](CO[P@](=O)(S)O[C@H]2[C@@H]1F)O[C@H]3n1ccc(=O)n2ccnc12` (single isomer, unassigned) [Example 20], the EC50 on full-length HAQ STING came out at 15 nM; at full-length WT STING, 83 nM. Moreover, the activation at 30 µM in assay [1] was determined as 169%.

Turning to `Nc1nc2c(ncn2[C@@H]2O[C@@H]3CO[P@@](=O)(S)O[C@H]4C[C@H](n5ccc6c(=O)[nH]cnc65)O[C@@H]4CO[P@@](=O)(S)O[C@@H]2C3)c(=O)[nH]1` (single isomer, unassigned) [Example 38], the concentration giving a half-maximal response (EC50) on full-length HAQ STING is 1 nM; at full-length WT STING, 393 nM. Further, the activation at 30 µM in assay [1] is 109%.

For the molecule `Nc1ncnc2c1nnn2[C@@H]1O[C@@H]2COP(=O)(S)O[C@@H]3[C@H](O)[C@@H](COP(=O)(S)O[C@H]2[C@@H]1F)O[C@H]3n1ccc(=O)n2ccnc12` (stereo partly drawn) [Example 4], the values for the EC50 at full-length HAQ STING and at full-length WT STING were 59 nM and 1760 nM, respectively. Besides, the activation at 30 µM in assay [1] is 139%.

In the case of `O=c1[nH]cnc2c1ncn2[C@@H]1O[C@@H]2CO[P@@](=O)(S)O[C@@H]3C[C@@H](CO[P@@](=O)(S)O[C@H]2[C@@H]1F)O[C@H]3n1ccc(=O)n2ccnc12` [Example 29, 9-[(2R,5S,7R,8R,10R,12aR,14R,15S,15aR)-15-fluoro-2,10-dioxido-7-(5-oxoimidazo[1,2-a]pyrimidin-8(5H)-yl)-2,10-disulfanyloctahydro-12H-5,8-methanofuro[3,2-l][1,3,6,9,11,2,10]pentaoxadiphosphacyclotetradecin-14-yl]-1,9-dihydro-6H-purin-6-one], the EC50 came to 45 nM at full-length HAQ STING and 136 nM at full-length WT STING. Moreover, in assay [1], the activation at 30 µM came out at 150%.

On to `Nc1nc2c(nnn2[C@@H]2S[C@@H]3COP(=O)(S)O[C@H]4[C@H](F)[C@H](n5ccc6c(=O)[nH]cnc65)O[C@@H]4COP(=O)(S)O[C@@H]2[C@@H]3F)c(=O)[nH]1` (single isomer, unassigned) [Example 49], for which the EC50 stood at 1 nM at full-length HAQ STING and 756 nM on full-length WT STING. Further, in assay [1], the “% Effect at 30 μM relative to 2′3′-cGAMP” value turned out to be 163%.

As to `Nc1ncnc2c1ncn2[C@@H]1O[C@@H]2COP(=O)(S)O[C@@H]3[C@H](O)[C@@H](COP(=O)(S)O[C@H]2[C@@H]1F)O[C@H]3n1cnc2c(=O)n3c(nc21)NC(=O)C3` (stereo partly drawn) [Example 14, 3-[(5R,7R,8R,12aR,14R,15S,15aR,16R)-14-(6-amino-9H-purin-9-yl)-15-fluoro-16-hydroxy-2,10-dioxido-2,10-disulfanyloctahydro-12H-5,8-methanofuro[3,2-l][l,3,6,9,11,2,10]pentaoxadiphosphacyclotetradecin-7-yl]-3H-imidazo[1,2-a]purine-6,9(5H,7H)-dione], the EC50 on full-length WT STING turned out to be 433 nM. Besides, the activation at 30 µM in assay [1] turned out to be 12%.

On full-length WT STING, `Nc1ncnc2c1ncn2[C@@H]1O[C@@H]2COP(=O)(S)O[C@@H]3[C@H](O)[C@@H](COP(=O)(S)O[C@H]2[C@@H]1F)O[C@H]3n1cnc2c(=O)n3cc[nH]c3nc21` (single isomer, unassigned) [Example 16] displayed an EC50 of 90 nM. Besides, the “% Effect at 30 μM relative to 2′3′-cGAMP” value in assay [1] was 281%.

With `Nc1nc2c(ncn2[C@@H]2O[C@@H]3COP(=O)(S)O[C@H]4C[C@H](n5ccc6c(=O)[nH]cnc65)O[C@@H]4COP(=O)(S)O[C@@H]2C3)c(=O)[nH]1` (single isomer, unassigned) [Example 37], at full-length HAQ STING, the EC50 was found to be 49 nM. Also, the activation at 30 µM in assay [1] was found to be 102%.

As for `Nc1nc2c(ncn2[C@@H]2O[C@@H]3COP(=O)(S)O[C@H]4C[C@H](n5ccc6c(=O)[nH]cnc65)O[C@@H]4COP(=O)(S)O[C@@H]2[C@@H]3F)c(=O)[nH]1` (single isomer, unassigned) [Example 36], the EC50 at full-length HAQ STING worked out at 2 nM. In addition, in assay [1], the activation at 30 µM stood at 94%.

`Nc1ncnc2c1ncn2[C@@H]1O[C@@H]2COP(=O)(S)O[C@@H]3[C@H](O)[C@@H](COP(=O)(S)O[C@H]2[C@@H]1F)O[C@H]3n1cnc2c(=O)n3cc[nH]c3nc21` (single isomer, unassigned) [Example 15] registered an EC50 on full-length WT STING of 43 nM. Further, the “% Effect at 30 μM relative to 2′3′-cGAMP” value in assay [1] was determined as 318%.

For `Nc1ncnc2c1ncn2[C@@H]1S[C@@H]2CO[P@](=O)(S)O[C@@H]3[C@H](O)[C@@H](CO[P@@](=O)(S)O[C@H]2[C@H]1O)O[C@H]3n1ccc(=O)n2ccnc12` (single isomer, unassigned) [Example 11], the midpoint of the response on full-length HAQ STING, the EC50, lay at 1740 nM. In addition, the activation at 30 µM in assay [1] stood at 5%.
